# Where “and” joins values, the source holds several entries; their conditions need not be identical. Identical values can stand only once.
# Columns and labels:
# OVCAR-8 = experiment: NCI cytotoxicity screen; assay type: cell-based, human; conditions: for GI50: Homo sapiens
# NCI-H226 = experiment: NCI cytotoxicity screen; assay type: cell-based, human; conditions: for GI50: Homo sapiens
# 786-0 = experiment: NCI cytotoxicity screen; assay type: cell-based, human; conditions: for GI50: Homo sapiens
# CCRF-CEM = experiment: NCI cytotoxicity screen; assay type: cell-based, human; conditions: for GI50: Homo sapiens
# MCF7 = experiment: NCI cytotoxicity screen; assay type: cell-based, human; conditions: for GI50: Homo sapiens, MCF7
# T-47D cells [1] = experiment: Cell cycle analysis; assay type: cell-based; conditions: compound at IC50 concentration
# HT29 = experiment: NCI cytotoxicity screen; assay type: cell-based, human; conditions: HT-29; for GI50: Homo sapiens
# DU-145 = experiment: NCI cytotoxicity screen; assay type: cell-based, human; conditions: for GI50: Homo sapiens
# SF-268 = experiment: NCI cytotoxicity screen; assay type: cell-based, human; conditions: for GI50: Homo sapiens
# HL-60(TB) = conditions: 10.0 μM one dose
# SF-539 = experiment: NCI cytotoxicity screen; assay type: cell-based, human; conditions: for GI50: Homo sapiens
# EGFR = EGFR (Homo sapiens, UniProt P00533); experiment: biochemical; conditions: IC50 EGFR inhibition
# EGFR, sequence (P00533 25-1210): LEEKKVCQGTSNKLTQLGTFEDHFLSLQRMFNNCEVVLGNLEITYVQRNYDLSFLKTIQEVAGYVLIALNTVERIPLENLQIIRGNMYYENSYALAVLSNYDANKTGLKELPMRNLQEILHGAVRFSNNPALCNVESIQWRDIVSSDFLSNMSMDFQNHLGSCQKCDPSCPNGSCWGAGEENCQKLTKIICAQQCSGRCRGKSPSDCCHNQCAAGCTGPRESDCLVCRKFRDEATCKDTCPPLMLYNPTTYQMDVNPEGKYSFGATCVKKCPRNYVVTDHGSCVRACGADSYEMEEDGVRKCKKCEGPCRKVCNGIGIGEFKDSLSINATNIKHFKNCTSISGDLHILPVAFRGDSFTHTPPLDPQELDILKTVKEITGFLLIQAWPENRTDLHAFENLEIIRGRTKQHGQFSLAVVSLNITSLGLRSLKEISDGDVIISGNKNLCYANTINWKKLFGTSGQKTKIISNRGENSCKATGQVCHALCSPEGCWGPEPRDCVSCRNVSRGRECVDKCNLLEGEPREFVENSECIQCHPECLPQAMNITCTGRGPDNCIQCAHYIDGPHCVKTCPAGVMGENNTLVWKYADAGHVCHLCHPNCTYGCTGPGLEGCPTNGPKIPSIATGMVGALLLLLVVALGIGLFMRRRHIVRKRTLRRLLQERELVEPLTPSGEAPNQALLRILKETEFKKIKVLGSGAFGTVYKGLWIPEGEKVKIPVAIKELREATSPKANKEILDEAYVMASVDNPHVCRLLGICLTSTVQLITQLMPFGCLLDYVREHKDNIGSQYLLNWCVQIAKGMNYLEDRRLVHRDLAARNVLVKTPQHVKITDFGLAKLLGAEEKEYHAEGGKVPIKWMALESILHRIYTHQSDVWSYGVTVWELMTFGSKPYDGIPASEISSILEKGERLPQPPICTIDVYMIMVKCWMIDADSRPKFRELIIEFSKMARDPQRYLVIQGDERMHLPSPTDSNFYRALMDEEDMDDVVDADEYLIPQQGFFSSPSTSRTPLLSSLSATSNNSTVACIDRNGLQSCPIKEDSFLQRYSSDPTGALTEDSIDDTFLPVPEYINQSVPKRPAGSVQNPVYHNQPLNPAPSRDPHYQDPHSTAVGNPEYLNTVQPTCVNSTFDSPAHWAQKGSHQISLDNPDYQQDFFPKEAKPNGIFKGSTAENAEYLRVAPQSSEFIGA
# CDK9 = CDK9 (Homo sapiens, UniProt P50750); experiment: biochemical; conditions: IC50 CDK9 inhibition
# CDK9, sequence (P50750 whole entry): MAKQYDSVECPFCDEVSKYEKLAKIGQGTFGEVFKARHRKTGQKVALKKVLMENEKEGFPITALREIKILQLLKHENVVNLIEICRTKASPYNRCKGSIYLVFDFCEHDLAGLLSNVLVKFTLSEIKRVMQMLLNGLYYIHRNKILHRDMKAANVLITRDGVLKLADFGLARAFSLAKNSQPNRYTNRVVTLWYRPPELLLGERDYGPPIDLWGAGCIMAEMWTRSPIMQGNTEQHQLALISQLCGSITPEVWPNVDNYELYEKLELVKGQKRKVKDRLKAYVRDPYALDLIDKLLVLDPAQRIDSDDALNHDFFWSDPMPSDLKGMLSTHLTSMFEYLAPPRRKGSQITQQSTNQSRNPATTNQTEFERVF
# CDK9, sequence (O60563 whole entry partner): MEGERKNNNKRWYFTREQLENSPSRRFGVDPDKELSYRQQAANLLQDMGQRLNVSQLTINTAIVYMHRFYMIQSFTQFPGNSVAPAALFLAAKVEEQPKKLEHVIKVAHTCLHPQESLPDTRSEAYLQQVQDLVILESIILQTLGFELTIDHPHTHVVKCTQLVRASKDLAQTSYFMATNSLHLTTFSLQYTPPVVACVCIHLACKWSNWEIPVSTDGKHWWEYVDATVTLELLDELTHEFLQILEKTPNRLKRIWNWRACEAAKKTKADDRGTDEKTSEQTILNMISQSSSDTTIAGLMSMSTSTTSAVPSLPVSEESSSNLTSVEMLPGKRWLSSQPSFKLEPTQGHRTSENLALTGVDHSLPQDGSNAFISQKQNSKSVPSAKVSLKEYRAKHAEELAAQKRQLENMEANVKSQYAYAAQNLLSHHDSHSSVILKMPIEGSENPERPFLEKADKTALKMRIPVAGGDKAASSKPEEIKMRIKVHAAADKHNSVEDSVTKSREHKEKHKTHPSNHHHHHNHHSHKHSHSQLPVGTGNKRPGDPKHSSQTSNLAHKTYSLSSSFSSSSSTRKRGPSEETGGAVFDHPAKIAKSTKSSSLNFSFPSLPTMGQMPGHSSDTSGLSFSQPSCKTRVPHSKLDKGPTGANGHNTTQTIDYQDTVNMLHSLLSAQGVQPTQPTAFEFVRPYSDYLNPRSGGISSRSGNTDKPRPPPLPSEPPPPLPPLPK
# PC-3 = experiment: NCI cytotoxicity screen; assay type: cell-based, human; conditions: for GI50: Homo sapiens
# SR = experiment: NCI cytotoxicity screen; assay type: cell-based, human; conditions: for GI50: Homo sapiens
# HCC-2998 = experiment: NCI cytotoxicity screen; assay type: cell-based, human; conditions: for GI50: Homo sapiens, HCC 2998
# COLO 205 = experiment: NCI cytotoxicity screen; assay type: cell-based, human; conditions: for GI50: Homo sapiens, COLO 205
# RPMI-8226 = experiment: NCI cytotoxicity screen; assay type: cell-based, human; conditions: for GI50: Homo sapiens
# OVCAR-5 = experiment: NCI cytotoxicity screen; assay type: cell-based, human; conditions: for GI50: Homo sapiens, OVCAR-5
# CAKI-1 = experiment: NCI cytotoxicity screen; assay type: cell-based, human; conditions: for GI50: Homo sapiens
# HER2 = HER2 (Homo sapiens, UniProt P04626); experiment: HER2 tyrosine kinase assay; assay type: biochemical; conditions: IC50 HER2 inhibition
# HER2, sequence (P04626 23-1255): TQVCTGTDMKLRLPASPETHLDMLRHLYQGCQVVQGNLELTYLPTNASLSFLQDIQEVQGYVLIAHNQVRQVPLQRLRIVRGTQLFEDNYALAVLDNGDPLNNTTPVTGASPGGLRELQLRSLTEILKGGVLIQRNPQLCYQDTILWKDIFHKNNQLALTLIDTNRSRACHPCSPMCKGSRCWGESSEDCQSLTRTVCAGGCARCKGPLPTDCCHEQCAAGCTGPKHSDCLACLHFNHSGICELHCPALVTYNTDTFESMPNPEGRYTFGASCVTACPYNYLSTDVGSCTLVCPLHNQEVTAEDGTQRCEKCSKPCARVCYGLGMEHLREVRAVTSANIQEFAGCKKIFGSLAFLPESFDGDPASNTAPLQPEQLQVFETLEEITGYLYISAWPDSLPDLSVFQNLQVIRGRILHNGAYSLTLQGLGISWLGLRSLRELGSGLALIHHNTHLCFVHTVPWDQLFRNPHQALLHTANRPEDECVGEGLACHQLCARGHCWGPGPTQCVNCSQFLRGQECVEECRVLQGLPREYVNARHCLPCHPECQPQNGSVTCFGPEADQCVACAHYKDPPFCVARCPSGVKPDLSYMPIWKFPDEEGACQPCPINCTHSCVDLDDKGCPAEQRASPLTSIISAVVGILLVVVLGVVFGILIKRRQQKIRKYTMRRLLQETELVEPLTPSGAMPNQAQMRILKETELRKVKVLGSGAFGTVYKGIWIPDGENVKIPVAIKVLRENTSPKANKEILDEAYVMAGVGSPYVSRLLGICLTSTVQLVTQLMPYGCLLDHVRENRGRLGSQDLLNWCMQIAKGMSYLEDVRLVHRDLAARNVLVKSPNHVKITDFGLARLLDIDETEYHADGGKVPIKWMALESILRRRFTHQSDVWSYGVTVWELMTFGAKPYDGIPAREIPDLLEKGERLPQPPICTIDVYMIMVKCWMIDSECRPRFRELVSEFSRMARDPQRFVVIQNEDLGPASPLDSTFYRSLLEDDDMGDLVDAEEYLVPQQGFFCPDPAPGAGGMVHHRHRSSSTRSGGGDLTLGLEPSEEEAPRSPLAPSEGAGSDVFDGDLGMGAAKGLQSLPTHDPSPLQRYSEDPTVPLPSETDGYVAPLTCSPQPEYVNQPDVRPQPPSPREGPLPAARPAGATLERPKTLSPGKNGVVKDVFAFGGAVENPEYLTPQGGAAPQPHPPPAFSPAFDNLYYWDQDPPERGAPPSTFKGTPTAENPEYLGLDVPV
# HS 578T = experiment: NCI cytotoxicity screen; assay type: cell-based, human; conditions: for GI50: Homo sapiens, Hs-578T
# TK-10 = experiment: NCI cytotoxicity screen; assay type: cell-based, human; conditions: for GI50: Homo sapiens
# RXF 393 = experiment: NCI cytotoxicity screen; assay type: cell-based, human; conditions: for GI50: Homo sapiens
# [2] = tested on: NSC lung cancer subpanel tumor cell lines; experiment: NCI cytotoxicity screen, subpanel; assay type: cell-based, human; conditions: for CC50: read-out: LC50; for GI50 / TGI: subpanel value, NSC lung cancer
# SK-MEL-2 = experiment: NCI cytotoxicity screen; assay type: cell-based, human; conditions: for GI50: Homo sapiens
# HOP-62 = experiment: NCI cytotoxicity screen; assay type: cell-based, human; conditions: for GI50: Homo sapiens
# [3] = tested on: Renal cancer subpanel tumor cell lines; experiment: NCI cytotoxicity screen, subpanel; assay type: cell-based, human; conditions: for CC50: read-out: LC50; for GI50 / TGI: subpanel value, Renal cancer
# M14 = experiment: NCI cytotoxicity screen; assay type: cell-based, human; conditions: for GI50: Homo sapiens
# K-562 = conditions: 10.0 μM one dose
# A549/ATCC = experiment: NCI cytotoxicity screen; assay type: cell-based, human; conditions: for GI50: Homo sapiens, A549
# T-47D cells [4] = experiment: Annexin V-FITC/PI apoptosis assay; assay type: cell-based
# COX-2 = target: T1, COX-2 (Ovis aries, UniProt P79208); experiment: Colorimetric COX; assay type: biochemical, ovine
# T1 sequence (P79208 17-603): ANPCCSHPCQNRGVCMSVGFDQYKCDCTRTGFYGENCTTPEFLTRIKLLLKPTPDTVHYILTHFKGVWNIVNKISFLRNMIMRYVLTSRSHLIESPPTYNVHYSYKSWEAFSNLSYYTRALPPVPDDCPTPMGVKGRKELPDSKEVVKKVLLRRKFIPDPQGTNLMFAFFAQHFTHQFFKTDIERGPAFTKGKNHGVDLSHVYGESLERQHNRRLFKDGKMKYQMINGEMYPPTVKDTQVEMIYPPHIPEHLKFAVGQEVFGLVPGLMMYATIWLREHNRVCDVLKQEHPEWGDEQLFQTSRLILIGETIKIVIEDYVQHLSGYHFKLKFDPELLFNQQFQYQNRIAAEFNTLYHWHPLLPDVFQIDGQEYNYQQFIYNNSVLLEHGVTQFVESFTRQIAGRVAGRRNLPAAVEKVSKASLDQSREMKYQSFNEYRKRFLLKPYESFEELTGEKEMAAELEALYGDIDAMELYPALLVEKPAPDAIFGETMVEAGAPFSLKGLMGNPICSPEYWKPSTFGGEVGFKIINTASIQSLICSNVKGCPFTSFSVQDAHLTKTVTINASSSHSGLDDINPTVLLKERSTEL
# SN12C = experiment: NCI cytotoxicity screen; assay type: cell-based, human; conditions: for GI50: Homo sapiens, SN12C
# A498 = experiment: NCI cytotoxicity screen; assay type: cell-based, human; conditions: Homo sapiens, A498
smiles,measurement,setting,value
"CCN(CC)c1ccc(C=NNC(=O)CSc2nc3ccccc3c(=O)n2Cc2ccc(S(N)(=O)=O)cc2)c(O)c1 [Compound 5, 4-((2-((2-(2-(4-(Diethylamino)-2-hydroxybenzylidene)hydrazineyl)-2-oxoethyl)thio)-4-oxoquinazolin-3(4H)-yl)methyl)benzenesulfonamide]",GI %,OVCAR-8; 10.0 μM one dose,80%
same,GI50,OVCAR-8,0.932 µM
same,GI %,NCI-H226; 10.0 μM one dose,69%
same,GI50,NCI-H226,0.894 µM
same,GI %,786-0; 10.0 μM one dose,68%
same,GI50,786-0,1.84 µM
same,GI %,CCRF-CEM; 10.0 μM one dose,90%
same,GI50,CCRF-CEM,0.196 µM
same,GI %,"MCF7; 10.0 μM one dose, MCF-7",87%
same,GI50,MCF7,0.457 µM
same,%G0-G1,T-47D cells [1],46.31%
same,%G2-M,T-47D cells [1],26.3%
same,%S,T-47D cells [1],20.9%
same,%G2-M,T-47D cells [1]; listed as Five,26.27%
same,%S,T-47D cells [1]; listed as Five,27.42%
same,GI %,HT29; 10.0 μM one dose,68%
same,GI50,HT29,3.01 µM
same,GI %,DU-145; 10.0 μM one dose,62%
same,GI50,DU-145,0.944 µM
same,GI %,SF-268; 10.0 μM one dose,82%
same,GI50,SF-268,0.766 µM
same,GI %,HL-60(TB),120%
same,GI %,SF-539; 10.0 μM one dose,72%
same,GI50,SF-539,1.26 µM
same,IC50,EGFR,0.0844 µM
same,IC50,CDK9,0.147 ± 0.0036 µM
same,GI %,PC-3; 10.0 μM one dose,51%
same,GI50,PC-3,0.829 µM
same,GI %,SR; 10.0 μM one dose,90%
same,GI50,SR,0.212 µM
same,GI %,"HCC-2998; 10.0 μM one dose, HCC-2998",80%
same,GI50,HCC-2998,0.882 µM
same,GI %,"COLO 205; 10.0 μM one dose, COLO-205",102%
same,GI50,COLO 205,1.51 µM
same,GI %,RPMI-8226; 10.0 μM one dose,83%
same,GI50,RPMI-8226,0.521 µM
same,GI %,"OVCAR-5; 10.0 μM one dose, IGROV-5",45%
same,GI50,OVCAR-5,2.09 µM
same,GI %,CAKI-1; 10.0 μM one dose,69%
same,GI50,CAKI-1,1.02 µM
same,IC50,HER2,0.0539 µM
same,GI %,"HS 578T; 10.0 μM one dose, HS-578T",37%
same,GI50,HS 578T,2.11 µM
same,GI %,TK-10; 10.0 μM one dose,85%
same,GI50,TK-10,1.66 µM
same,GI %,RXF 393; 10.0 μM one dose,58%
same,GI50,RXF 393,2.5 µM
same,CC50,[2]; Homo sapiens,> 100 µM
same,GI50,[2]; Homo sapiens,1.1 µM
same,GI50,[2],1.06 µM
same,TGI,[2],c (Compounds showed values > 100 μM)
same,GI %,SK-MEL-2; 10.0 μM one dose,90%
same,GI50,SK-MEL-2,2.41 µM
same,GI %,HOP-62; 10.0 μM one dose,79%
same,GI50,HOP-62,0.961 µM
same,CC50,[3]; Homo sapiens,> 100 µM
same,GI50,[3]; Homo sapiens,1.9 µM
same,GI50,[3],1.92 µM
same,TGI,[3],91.54 µM
same,GI %,M14; 10.0 μM one dose,96%
same,GI50,M14,0.452 µM
same,GI %,K-562,94%
same,GI %,"A549/ATCC; 10.0 μM one dose, A549/ATCC",71%
same,GI50,A549/ATCC,1.57 µM
same,Apoptosis Early,T-47D cells [4],9.3% and 9.28%
same,Apoptosis Late,T-47D cells [4],14.8% and 14.75%
same,Apoptosis Total,T-47D cells [4],31.07%
same,Necrosis,T-47D cells [4],7.04%
same,IC50,COX-2,3.32 ± 0.06 µM
same,GI %,"SN12C; 10.0 μM one dose, SN-12C",68%
same,GI50,SN12C,1.93 µM
"C#Cc1cccc(Nc2ncnc3cc(OCCOC)c(OCCOC)cc23)c1 [Erlotinib, reference compound]",GI50,OVCAR-8,7.94 µM
same,GI50,NCI-H226,6.3 µM
same,GI50,786-0,5.01 µM
same,GI50,CCRF-CEM,15.8 µM
same,GI50,MCF7,100 µM
same,GI50,A498,1.58 µM
same,GI50,HT29,50.1 µM
same,GI50,DU-145,1.58 µM
same,GI50,SF-268,19.9 µM
same,GI50,SF-539,12.6 µM
same,GI50,PC-3,50.1 µM
same,GI50,SR,6.3 µM
same,GI50,HCC-2998,79.3 µM
same,GI50,COLO 205,31.6 µM
same,GI50,RPMI-8226,5.01 µM
same,GI50,OVCAR-5,19.9 µM
same,GI50,CAKI-1,0.1 µM
same,GI50,HS 578T,6.3 µM
same,GI50,TK-10,0.1 µM
same,GI50,RXF 393,6.3 µM
same,CC50,[2]; Homo sapiens,97.7 µM
same,GI50,[2]; Homo sapiens,13.1 µM
same,GI50,[2],13.1 µM
same,TGI,[2],73.76 µM
same,GI50,SK-MEL-2,12.6 µM
same,GI50,HOP-62,12.6 µM
same,CC50,[3]; Homo sapiens,89.2 µM
same,GI50,[3]; Homo sapiens,2.5 µM
same,GI50,[3],2.46 µM
same,TGI,[3],42.59 µM
same,GI50,M14,6.3 µM
same,GI50,A549/ATCC,7.94 µM
same,GI50,SN12C,6.3 µM
"COc1cc2ncnc(Nc3ccc(F)c(Cl)c3)c2cc1OCCCN1CCOCC1 [Gefitinib, reference compound]",GI50,OVCAR-8,10 µM
same,GI50,NCI-H226,15.8 µM
same,GI50,786-0,7.94 µM
same,GI50,CCRF-CEM,5.01 µM
same,GI50,MCF7,10 µM
same,GI50,A498,0.4 µM
same,GI50,HT29,3.98 µM
same,GI50,DU-145,2.51 µM
same,GI50,SF-268,7.94 µM
same,GI50,SF-539,10 µM
same,GI50,SR,3.16 µM
same,GI50,HCC-2998,10 µM
same,GI50,RPMI-8226,1.58 µM
same,GI50,OVCAR-5,10 µM
same,GI50,CAKI-1,0.16 µM
same,GI50,HS 578T,10 µM
same,GI50,TK-10,0.1 µM
same,GI50,RXF 393,5.01 µM
same,GI50,[2]; Homo sapiens,2.1 µM
same,GI50,[2],2.05 µM
same,TGI,[2],13.86 µM
same,GI50,SK-MEL-2,12.6 µM
same,GI50,HOP-62,10 µM
same,GI50,M14,5.01 µM
same,GI50,A549/ATCC,7.94 µM

# From article PMC11702208 (RSC Advances, 2025)
